Results published in patent US4495179A, “A51568 Antibiotic and process for producing thereof” (Eli Lilly and Company, priority 1983, dated 1985).
Values after ≈ are worked out from the molar mass of the structure shown.

Legend:
[1] = test system: Staphylococcus epidermidis; assay: Standard agar-dilution assay, aerobic bacteria (Table 9); assay type: cell-based; settings: Staphylococcus epidermidis EPI2, end point after 24 hours
Protocol: (§1) The in vitro activity of antibiotic A51568 against a number of aerobic bacteria has been determined using a standard agar-dilution assay. The results, determined by reading the end point after 24 hours, are recorded in Table 9, which follows.

Streptococcus pneumoniae = assay: as above; assay type: cell-based; settings: Streptococcus pneumoniae Park I, end point after 24 hours
Protocol: as §1

Streptococcus pyogenes = assay: as above; assay type: cell-based; settings: Streptococcus pyogenes C203, end point after 24 hours
Protocol: as §1

[2] = test system: Streptococcus sp. Group D; assay: as above; assay type: cell-based
Protocol: as §1

Clostridium difficile [3] = assay: Agar-dilution MIC, anaerobic bacteria (Table 10); assay type: cell-based; settings: Clostridium difficile 2994
Excerpt: (§2) Antibiotic A51568 has been tested and found to be active against a number of anaerobic bacteria, as recorded in Table 10, which follows, the MIC values having been determined by the agar-dilution method.

Clostridium septicum = assay: Agar-dilution MIC, anaerobic bacteria (Table 10); assay type: cell-based; settings: Clostridium septicum 1128
Excerpt: as §2

Clostridium perfringens = assay type: cell-based; settings: Clostridium perfringens 81; Table 10
Eubacterium aerofaciens = assay: Agar-dilution MIC, anaerobic bacteria (Table 10); assay type: cell-based; settings: Eubacterium aerofaciens 1235
[4] = test system: Peptococcus asaccharolyticus; assay: Agar-dilution MIC, anaerobic bacteria (Table 10); assay type: cell-based; settings: Peptococcus asaccharolyticus 1302
Peptococcus prevoti = assay: Agar-dilution MIC, anaerobic bacteria (Table 10); assay type: cell-based; settings: Peptococcus prevoti 1281
[5] = test system: Peptostreptococcus anaerobius; assay: Agar-dilution MIC, anaerobic bacteria (Table 10); assay type: cell-based; settings: Peptostreptococcus anaerobius 1428
[6] = test system: Peptostreptococcus intermedius; assay: Agar-dilution MIC, anaerobic bacteria (Table 10); assay type: cell-based; settings: Peptostreptococcus intermedius 1264
Propionibacterium acnes = assay: Agar-dilution MIC, anaerobic bacteria (Table 10); assay type: cell-based; settings: Propionibacterium acnes 79
Bacteroides fragilis = assay: Agar-dilution MIC, anaerobic bacteria (Table 10); assay type: cell-based
[7] = test system: Bacteroides thetaiotaomicron; assay: Agar-dilution MIC, anaerobic bacteria (Table 10); assay type: cell-based; settings: Bacteroides thetaiotaomicron 1438
[8] = test system: Bacteroides melaninogenicus; assay: Agar-dilution MIC, anaerobic bacteria (Table 10); assay type: cell-based
Bacteroides vulgatis = assay: Agar-dilution MIC, anaerobic bacteria (Table 10); assay type: cell-based; settings: Bacteroides vulgatis 1211
Bacteroides corrodens = assay: Agar-dilution MIC, anaerobic bacteria (Table 10); assay type: cell-based; settings: Bacteroides corrodens 1874
Fusobacterium symbiosum = assay: Agar-dilution MIC, anaerobic bacteria (Table 10); assay type: cell-based; settings: Fusobacterium symbiosum 1470
[9] = test system: Fusobacterium necrophorum; assay: Agar-dilution MIC, anaerobic bacteria (Table 10); assay type: cell-based; settings: Fusobacterium necrophorum 6054A
Clostridium difficile [10] = assay: Agar-dilution MIC, Clostridium difficile strains (Table 11); assay type: cell-based
Excerpt: Antibiotic A51568 is also active against a number of strains of Clostridium difficile, as determined by the agar-dilution method.

Staph. aureus 3055 = assay: In vivo protection against experimental bacterial infection; settings: mice, Staph. aureus 3055 infection, two doses subcutaneously
Protocol: (§3) Antibiotic A51568 has shown in vivo antimicrobial activity against experimental bacterial infections. When two doses of test compound were administered subcutaneously to mice in illustrative infections, the activity observed is measured as an ED50 [effective dose in mg/kg to protect fifty percent of the test animals: See Warren Wick et al., J. Bacteriol. 81, 233-235 (1961)]. The ED50 values observed for antibiotic A51568 are as follows: […]

Strep. pneumoniae Park I = assay: as above; settings: mice, two doses subcutaneously
Protocol: as §3

Strep. pyogenes C203 = assay: as above; settings: mice, two doses subcutaneously
Protocol: as §3

Compound `CC(C)C[C@@H](N)C(=O)N[C@@H]1C(=O)N[C@@H](CC(N)=O)C(=O)N[C@H]2C(=O)N[C@H]3C(=O)N[C@H](C(=O)N[C@H](C(=O)O)c4cc(O)cc(O)c4-c4cc3ccc4O)[C@H](O)c3ccc(c(Cl)c3)Oc3cc2cc(c3O[C@@H]2O[C@H](CO)[C@@H](O)[C@H](O)[C@H]2O[C@H]2C[C@](C)(N)C(O)[C@H](C)O2)Oc2ccc(cc2Cl)[C@H]1O` (stereo partly shown) [A51568, demethylvancomycin] has an MIC [1] of 1 µg/mL (≈ 0.697 µM), an MIC (Streptococcus pneumoniae) of 0.5 µg/mL (≈ 0.348 µM) and an MIC (Streptococcus pyogenes) of 1 µg/mL (≈ 0.697 µM). For the same compound, the MIC ([2]; Streptococcus sp. Group D 9960, end point after 24 hours) was 4 µg/mL (≈ 2.79 µM), the MIC ([2]; Streptococcus sp. Group D X66, end point after 24 hours) was 1 µg/mL (≈ 0.697 µM) and the MIC (Clostridium difficile [3]) was 2 µg/mL (≈ 1.39 µM). It also gave an MIC (Clostridium septicum) of 1 µg/mL (≈ 0.697 µM), an MIC (Clostridium perfringens) of 1 µg/mL (≈ 0.697 µM) and an MIC (Eubacterium aerofaciens) of 2 µg/mL (≈ 1.39 µM). The MIC [4] was 16 µg/mL (≈ 11.1 µM), the MIC (Peptococcus prevoti) was 32 µg/mL (≈ 22.3 µM) and the MIC [5] was 1 µg/mL (≈ 0.697 µM). The MIC [6] was 1 µg/mL (≈ 0.697 µM), the MIC (Propionibacterium acnes) was 1 µg/mL (≈ 0.697 µM) and the MIC (Bacteroides fragilis; Bacteroides fragilis 111) was 32 µg/mL (≈ 22.3 µM). The MIC (Bacteroides fragilis; Bacteroides fragilis 1877) was 32 µg/mL (≈ 22.3 µM), the MIC (Bacteroides fragilis; Bacteroides fragilis 1936B) was 32 µg/mL (≈ 22.3 µM) and the MIC [7] was 32 µg/mL (≈ 22.3 µM). For the same compound, the MIC ([8]; Bacteroides melaninogenicus 1856/28) was greater than 128 µg/mL, the MIC ([8]; Bacteroides melaninogenicus 2736) was 16 µg/mL (≈ 11.1 µM) and the MIC (Bacteroides vulgatis) was 32 µg/mL (≈ 22.3 µM). It also gave an MIC (Bacteroides corrodens) of 32 µg/mL (≈ 22.3 µM), an MIC (Fusobacterium symbiosum) of 2 µg/mL (≈ 1.39 µM) and an MIC [9] of 2 µg/mL (≈ 1.39 µM). For the same compound, the MIC (Clostridium difficile [10]; Clostridium difficile 78) was 2 µg/mL (≈ 1.39 µM), the MIC (Clostridium difficile [10]; Clostridium difficile 107B) was 2 µg/mL (≈ 1.39 µM) and the MIC (Clostridium difficile [10]; Clostridium difficile 111F) was 2 µg/mL (≈ 1.39 µM). It also gave an MIC (Clostridium difficile [10]; Clostridium difficile 1153) of 2 µg/mL (≈ 1.39 µM), an MIC (Clostridium difficile [10]; Clostridium difficile 2634) of 2 µg/mL (≈ 1.39 µM) and an MIC (Clostridium difficile [10]; Clostridium difficile 3424-5B) of 2 µg/mL (≈ 1.39 µM). The MIC (Clostridium difficile [10]; Clostridium difficile 3816) was 2 µg/mL (≈ 1.39 µM), the MIC (Clostridium difficile [10]; Clostridium difficile 3950D) was 2 µg/mL (≈ 1.39 µM) and the MIC (Clostridium difficile [10]; Clostridium difficile 6890) was 2 µg/mL (≈ 1.39 µM). The MIC (Clostridium difficile [10]; Clostridium difficile 8484) was 2 µg/mL (≈ 1.39 µM), the MIC (Clostridium difficile [10]; Clostridium difficile A-194) was 2 µg/mL (≈ 1.39 µM) and the MIC (Clostridium difficile [10]; Clostridium difficile A-195) was 2 µg/mL (≈ 1.39 µM). For the same compound, the MIC (Clostridium difficile [10]; Clostridium difficile A-196) was 2 µg/mL (≈ 1.39 µM), the MIC (Clostridium difficile [10]; Clostridium difficile A-279) was 2 µg/mL (≈ 1.39 µM) and the MIC (Clostridium difficile [10]; Clostridium difficile A-280) was 2 µg/mL (≈ 1.39 µM). The MIC (Clostridium difficile [10]; Clostridium difficile A-281) was 2 µg/mL (≈ 1.39 µM), the MIC (Clostridium difficile [10]; Clostridium difficile WAL-2112) was 2 µg/mL (≈ 1.39 µM) and the MIC (Clostridium difficile [10]; Clostridium difficile WAL-3657) was 2 µg/mL (≈ 1.39 µM). For the same compound, the MIC (Clostridium difficile [10]; Clostridium difficile WAL-4268) was 2 µg/mL (≈ 1.39 µM), the “ED50 (effective dose to protect fifty percent of the test animals)” value (Staph. aureus 3055) was 1.79 mg/kg × 2 and the “ED50 (effective dose to protect fifty percent of the test animals)” value (Strep. pneumoniae Park I) was 2.71 mg/kg × 2. For the same compound, the “ED50 (effective dose to protect fifty percent of the test animals)” value (Strep. pyogenes C203) was 3.03 mg/kg × 2.
